pIC50: −log10 of the molar value. Read-outs that look alike come from different tables or passages of the source.
Legend:
PhoP [1] = biological target: T1, PhoP (Mycobacterium tuberculosis, UniProt P71814, D106C); format: binding
PhoP [2] = biological target: T1, PhoP; format: binding; remark: listed apart in the source

Molecule | pIC50 (PhoP [1]) | pIC50 (PhoP [2])
CCCCCCCCCC(CC)c1ccc(S(=O)(=O)O)cc1 (centres unmarked) [NCGC00244580] | 4.45 | 
NCGC00161636 |  | 4.81
